# Data from ChEMBL document CHEMBL1772979, “SAR studies on a series of N-benzyl-4-heteroaryl-1-(phenylsulfonyl)piperazine-2-carboxamides: potent inhibitors of the polymerase enzyme (NS5B) of the hepatitis C virus” (Bioorg Med Chem Lett, 2011).
# Tested on: Hepatitis C virus
# Assay: Antiviral activity against Hepatitis C virus subtype 1a by cell based replicon assay
# Assay type: functional, organism-based, Hepacivirus hominis
# Settings: Hepatitis C virus, subtype 1a; read-out: EC50
row,EC50 [nM],Structure (SMILES)
1,460,CCC(C)(C)NC(=O)c1ccc(N2CCN(S(=O)(=O)c3ccc(OC(F)(F)F)cc3)C(C(=O)NCc3ccc(OC(F)(F)F)cc3)C2)nn1 (racemic)
2,20800,CCc1ccc(S(=O)(=O)N2CCN(c3cc(OC)nc(OC)n3)CC2C(=O)NCc2c(C)nn(-c3ccccc3)c2C)cc1 (racemic)
3,220,CNC(=O)c1ccc(N2CCN(S(=O)(=O)c3ccc(OC(F)(F)F)cc3)[C@@H](C(=O)NCc3ccc(OC(F)(F)F)cc3)C2)nn1
4,6200,CCc1ccc(S(=O)(=O)N2CCN(c3cc(OC)nc(OC)n3)C[C@@H]2C(=O)NCc2ccc(OC)cc2)cc1
5,13000,COc1cc(N2CCN(S(=O)(=O)c3ccc(OC)c(OC)c3)C(C(=O)NCc3ccc(OC(F)(F)F)cc3)C2)nc(OC)n1 (racemic)
6,30800,CCc1ccc(S(=O)(=O)N2CCN(c3cc(OC)nc(OC)n3)CC2C(=O)NCc2ccc(Cl)cc2)cc1 (racemic)
7,> 50000,CCc1ccc(S(=O)(=O)N2CCN(c3cc(OC)nc(OC)n3)CC2C(=O)N(C)Cc2ccccc2)cc1 (racemic)
8,14100,CCc1ccc(S(=O)(=O)N2CCN(c3cc(OC)nc(OC)n3)C[C@H]2C(=O)NCc2ccc(OC)cc2)cc1
9,12400,CCc1ccc(S(=O)(=O)N2CCN(c3cc(OC)nc(OC)n3)CC2C(=O)NCc2ccc(OC)cc2OC)cc1 (racemic)
10,3900,COC(=O)c1ccc(N2CCN(S(=O)(=O)c3ccc(OC(F)(F)F)cc3)C(C(=O)NCc3ccc(OC(F)(F)F)cc3)C2)nn1 (racemic)
11,8100,COc1cc(N2CCN(S(=O)(=O)c3ccc(OC(F)(F)F)cc3)C(C(=O)NCc3ccc(OC(F)(F)F)cc3)C2)nc(OC)n1 (racemic)
12,20500,CCc1ccc(S(=O)(=O)N2CCN(c3cc(OC)nc(OC)n3)CC2C(=O)NCc2ccc(C)cc2)cc1 (racemic)
13,41000,COc1cc(N2CCN(S(=O)(=O)c3cccc(C)c3)C(C(=O)NCc3ccc(OC(F)(F)F)cc3)C2)nc(OC)n1 (racemic)
14,64000,COc1ccc(S(=O)(=O)N2CCN(c3cc(OC)nc(OC)n3)CC2C(=O)NCc2ccc(OC(F)(F)F)cc2)cc1 (racemic)
15,56000,COc1cc(N2CCN(S(=O)(=O)c3ccc(-c4ccccc4)cc3)C(C(=O)NCc3ccc(OC(F)(F)F)cc3)C2)nc(OC)n1 (racemic)
16,23000,CCc1ccc(S(=O)(=O)N2CCN(c3cc(OC)nc(OC)n3)CC2C(=O)NCc2ccc(OC)cc2)cc1 (racemic)
17,139,CC(C)NC(=O)c1ccc(N2CCN(S(=O)(=O)c3ccc(OC(F)(F)F)cc3)[C@@H](C(=O)NCc3ccc(OC(F)(F)F)cc3)C2)nn1
18,> 50000,CCc1ccc(S(=O)(=O)N2CCN(c3cc(OC)nc(OC)n3)CC2C(=O)NCc2ccccc2Cl)cc1 (racemic)

# Tested on: Hepatitis C virus
# Assay: Antiviral activity against Hepatitis C virus subtype 1b by cell based replicon assay
# Assay type: functional, organism-based, Hepacivirus hominis, genotype 1b
# Settings: Hepatitis C virus, genotype 1b; read-out: EC50
row,EC50 [nM],Structure (SMILES)
1,43,CCC(C)(C)NC(=O)c1ccc(N2CCN(S(=O)(=O)c3ccc(OC(F)(F)F)cc3)C(C(=O)NCc3ccc(OC(F)(F)F)cc3)C2)nn1 (racemic)
2,2100,CCc1ccc(S(=O)(=O)N2CCN(c3cc(OC)nc(OC)n3)CC2C(=O)NCc2c(C)nn(-c3ccccc3)c2C)cc1 (racemic)
3,7,CNC(=O)c1ccc(N2CCN(S(=O)(=O)c3ccc(OC(F)(F)F)cc3)[C@@H](C(=O)NCc3ccc(OC(F)(F)F)cc3)C2)nn1
4,900,CCc1ccc(S(=O)(=O)N2CCN(c3cc(OC)nc(OC)n3)C[C@@H]2C(=O)NCc2ccc(OC)cc2)cc1
5,1100,COc1cc(N2CCN(S(=O)(=O)c3ccc(OC)c(OC)c3)C(C(=O)NCc3ccc(OC(F)(F)F)cc3)C2)nc(OC)n1 (racemic)
6,2100,CCc1ccc(S(=O)(=O)N2CCN(c3cc(OC)nc(OC)n3)CC2C(=O)NCc2ccc(Cl)cc2)cc1 (racemic)
7,> 50000,CCc1ccc(S(=O)(=O)N2CCN(c3cc(OC)nc(OC)n3)CC2C(=O)N(C)Cc2ccccc2)cc1 (racemic)
8,10100,CCc1ccc(S(=O)(=O)N2CCN(c3cc(OC)nc(OC)n3)C[C@H]2C(=O)NCc2ccc(OC)cc2)cc1
9,1200,CCc1ccc(S(=O)(=O)N2CCN(c3cc(OC)nc(OC)n3)CC2C(=O)NCc2ccc(OC)cc2OC)cc1 (racemic)
10,380,COC(=O)c1ccc(N2CCN(S(=O)(=O)c3ccc(OC(F)(F)F)cc3)C(C(=O)NCc3ccc(OC(F)(F)F)cc3)C2)nn1 (racemic)
11,700,COc1cc(N2CCN(S(=O)(=O)c3ccc(OC(F)(F)F)cc3)C(C(=O)NCc3ccc(OC(F)(F)F)cc3)C2)nc(OC)n1 (racemic)
12,1700,CCc1ccc(S(=O)(=O)N2CCN(c3cc(OC)nc(OC)n3)CC2C(=O)NCc2ccc(C)cc2)cc1 (racemic)
13,1400,COc1cc(N2CCN(S(=O)(=O)c3cccc(C)c3)C(C(=O)NCc3ccc(OC(F)(F)F)cc3)C2)nc(OC)n1 (racemic)
14,5900,COc1ccc(S(=O)(=O)N2CCN(c3cc(OC)nc(OC)n3)CC2C(=O)NCc2ccc(OC(F)(F)F)cc2)cc1 (racemic)
15,2400,COc1cc(N2CCN(S(=O)(=O)c3ccc(-c4ccccc4)cc3)C(C(=O)NCc3ccc(OC(F)(F)F)cc3)C2)nc(OC)n1 (racemic)
16,2200,CCc1ccc(S(=O)(=O)N2CCN(c3cc(OC)nc(OC)n3)CC2C(=O)NCc2ccc(OC)cc2)cc1 (racemic)
17,8,CC(C)NC(=O)c1ccc(N2CCN(S(=O)(=O)c3ccc(OC(F)(F)F)cc3)[C@@H](C(=O)NCc3ccc(OC(F)(F)F)cc3)C2)nn1
18,3700,CCc1ccc(S(=O)(=O)N2CCN(c3cc(OC)nc(OC)n3)CC2C(=O)NCc2ccccc2Cl)cc1 (racemic)

# Tested on: not listed separately
# Assay: Inhibition of Hepatitis C virus subtype 1a wild-type NS5B expressed in Escherichia coli BL21(DE3) assessed as decrease in [3H]-UTP incorporation using polyA template/biotin-labeled dT primer by SPA method
# Settings: not given
row,IC50 [nM],Structure (SMILES)
1,12500,CCc1ccc(S(=O)(=O)N2CCN(c3cc(OC)nc(OC)n3)CC2C(=O)NCc2ccc(OC)cc2)cc1 (racemic)

# Tested on: Hepatitis C virus
# Assay: Antiviral activity against Hepatitis C virus expressing NS5B Y452H mutant by cell based replicon assay
# Assay type: functional, organism-based, Hepacivirus hominis
# Settings: not given
row,Structure (SMILES),EC50 [nM]
1,CC[C@H](C)NC(=O)c1ccc(N2CCN(S(=O)(=O)c3ccc(OC(F)(F)F)cc3)[C@@H](C(=O)NCc3ccc(OC(F)(F)F)cc3)C2)nn1,400

# Tested on: Hepatitis C virus
# Assay: Inhibition of Hepatitis C virus subtype 1b wild-type NS5B expressed in Escherichia coli BL21(DE3) assessed as decrease in [3H]-UTP incorporation using polyA template/biotin-labeled dT primer by SPA method
# Settings: not given
row,Structure (SMILES),IC50 [nM]
1,CC[C@H](C)NC(=O)c1ccc(N2CCN(S(=O)(=O)c3ccc(OC(F)(F)F)cc3)[C@@H](C(=O)NCc3ccc(OC(F)(F)F)cc3)C2)nn1,13
2,CCc1ccc(S(=O)(=O)N2CCN(c3cc(OC)nc(OC)n3)CC2C(=O)NCc2ccc(OC)cc2)cc1 (racemic),300
